{
  "source": "patent EP1928451B1",
  "about": "“METHODS FOR TREATING SUBSTANCE-RELATED DISORDERS” (SK Biopharmaceuticals Co., LTD, priority 2005, dated 2007)",
  "key": {"[1]": {"tested_on": "selectively-bred alcohol preferring (P) rats", "assay": "Chronic administration: two-bottle choice alcohol intake in alcohol preferring rats", "assay_type": "in vivo", "description": "(§1) A compound of the present invention was tested in ethanol preferring rats, a model for acute and chronic drug addiction in humans using an adaptation of a published method (See, Rezvani, AH et al. Alcohol & Alcoholism, Vol. 25, No. 5, pp. 573-575, 1990, Rezvani AH, et al., Alcohol and Alcoholism (Oxford), 2000, 35(1), 76-83).\n(§2) An enantiomer of Formula (Ib) was orally administered in a dose range of from about 10 to about 90 mg/kg in test and control treatment groups of 10 rats per group over a period of 14 days. Test conditions reflected approaches for evaluating patterns of drinking (e.g., single or multiple events).\nAdult male selectively-bred alcohol preferring (P) rats were used. The selectively-bred alcohol-preferring (P) rats have been characterized and have been widely used to study the effects of different compounds on voluntary alcohol intake (Rezvani et al, 1990, 1991, 1992a, 1992b, 1999, 2000, 2002; 2003; Murphy et al, 1988; Overstreet et al., 1992, 1999; Li and McBride, 1995).\nRats were housed individually in wire mesh cages under a constant room temperature of 22 +1 °C and 12:12 light-dark cycle (8:00-20:00, dark). Animal were fed Agway Prolab Rat/Mouse/ Hamster 3000 formula and water ad libitum.\n(§3) Establishment of baseline alcohol intake: Alcohol intake was determined using a standard two-bottle choice method (as described in Murphy et al. 1988; McBride et al. 1990; Rezvani et al. 1990, 1991, 1993, 1995, 1997, Rezvani and Grady, 1994).\nAnimals were first given free access to water in a graduated Richter tube for 1 day. After the first day, the animals were given access to only a solution of 10% (v/v) ethanol for 3 consecutive days. During this period animals became accustomed to drinking from Richter tubes and to the taste and pharmacological effects of alcohol. Thereafter, they were given free access to both water and a solution of 10% alcohol for at least 3 consecutive weeks and throughout of the period of study. The rats had free access to food. Water and alcohol intake was recorded at 6 and 24 hour after the treatment, food intake was measured at 24 hour. Animal body weight was measured every day.\nThe effect of chronic administration of a test compound on alcohol intake and tolerance to the anti-craving effects of the test compound was tested in naïve rats treated (via gavage tube) once a day either vehicle or test compound. A test compound dose of 45 mg/Kg was selected as an effective dose for chronic administration based on the results of the acute administration study phase. Themost effective dose was then used for the chronic adminstiration phase and administered for 14 consecutive days. Alcohol and water intake was recorded 6 and 24 h after each treatment administration and food intake was recorded at 24 hr.\nThe results were presented as means ±SEM (Standard Error of the Means). Alcohol intake (g/kg) was calculated by multiplying the volume of alcohol consumed in mL by 10% and 0.7893 (a factor representing ethanol density)/body weight in kg. Alcohol preference, expressed as percentage, was calculated as follows (volume of alcohol consumed (mL)/total fluid intake (mL)) x 100 (as described in Rezvani and Grady,. 1994; Rezvani et al., 1997). Statistical differences between treatment and control groups were determined by using ANOVA and Turkey Student's t test for multiple comparisons."}, "[2]": {"tested_on": "selectively-bred alcohol preferring (P) rats", "assay": "Acute administration: two-bottle choice alcohol intake in alcohol preferring rats", "assay_type": "in vivo", "conditions": "dose of about 45 mg/kg and up, oral", "description": "as §1, §2\nAdult male selectively-bred alcohol preferring (P) rats were used. […]\nas §3\nAnimals were first given free access to water in a graduated Richter tube for 1 day. […] Water and alcohol intake was recorded at 6 and 24 hour after the treatment, food intake was measured at 24 hour. Animal body weight was measured every day. […]\nThe results were presented as means ±SEM (Standard Error of the Means). […] Statistical differences between treatment and control groups were determined by using ANOVA and Turkey Student's t test for multiple comparisons."}, "[3]": {"conditions": "BL (baseline, before treatment), drug group"}, "[4]": {"conditions": "Day 1, 45 mg/Kg once a day via gavage"}, "[5]": {"conditions": "Day 2, 45 mg/Kg once a day via gavage"}, "[6]": {"conditions": "Day 3, 45 mg/Kg once a day via gavage"}, "[7]": {"conditions": "Day 4, 45 mg/Kg once a day via gavage"}, "[8]": {"conditions": "Day 5, 45 mg/Kg once a day via gavage"}, "[9]": {"conditions": "Day 6, 45 mg/Kg once a day via gavage"}, "[10]": {"conditions": "Day 7, 45 mg/Kg once a day via gavage"}, "[11]": {"conditions": "Day 8, 45 mg/Kg once a day via gavage"}, "[12]": {"conditions": "Day 9, 45 mg/Kg once a day via gavage"}, "[13]": {"conditions": "Day 10, 45 mg/Kg once a day via gavage"}, "[14]": {"conditions": "Day 11, 45 mg/Kg once a day via gavage"}, "[15]": {"conditions": "Day 12, 45 mg/Kg once a day via gavage"}, "[16]": {"conditions": "Day 13, 45 mg/Kg once a day via gavage"}, "[17]": {"conditions": "Day 14, 45 mg/Kg once a day via gavage"}},
  "data": [
    {"molecule": "NC(=O)OC[C@@H](O)c1ccccc1Cl", "note": "[Drug]", "values": [
      {"measurement": "tolerance for the test compound's affect on ethanol intake", "setting": "[1]; 45 mg/Kg once a day for 14 consecutive days", "value": "without developing a tolerance"},
      {"measurement": "Alcohol Intake", "setting": "[1]; [3]", "value": 5.30, "unit": "g/kg"},
      {"measurement": "Alcohol Pref", "setting": "[1]; [3]", "value": 71, "unit": "%"},
      {"measurement": "Body Weight", "setting": "[1]; [3]", "value": 384, "unit": "g"},
      {"measurement": "Water Intake", "setting": "[1]; [3]", "value": 30, "unit": "g/kg"},
      {"measurement": "Alcohol Intake", "setting": "[1]; [4]", "value": 1.61, "unit": "g/kg"},
      {"measurement": "Alcohol Pref", "setting": "[1]; [4]", "value": 28, "unit": "%"},
      {"measurement": "Body Weight", "setting": "[1]; [4]", "value": 418, "unit": "g"},
      {"measurement": "Water Intake", "setting": "[1]; [4]", "value": 62, "unit": "g/kg"},
      {"measurement": "Alcohol Intake", "setting": "[1]; [5]", "value": 1.31, "unit": "g/kg"},
      {"measurement": "Alcohol Pref", "setting": "[1]; [5]", "value": 24, "unit": "%"},
      {"measurement": "Body Weight", "setting": "[1]; [5]", "value": 415, "unit": "g"},
      {"measurement": "Water Intake", "setting": "[1]; [5]", "value": 60, "unit": "g/kg"},
      {"measurement": "Alcohol Intake", "setting": "[1]; [6]", "value": 1.37, "unit": "g/kg"},
      {"measurement": "Alcohol Pref", "setting": "[1]; [6]", "value": 24, "unit": "%"},
      {"measurement": "Body Weight", "setting": "[1]; [6]", "value": 413, "unit": "g"},
      {"measurement": "Water Intake", "setting": "[1]; [6]", "value": 60, "unit": "g/kg"},
      {"measurement": "Alcohol Intake", "setting": "[1]; [7]", "value": 1.03, "unit": "g/kg"},
      {"measurement": "Alcohol Pref", "setting": "[1]; [7]", "value": 16, "unit": "%"},
      {"measurement": "Body Weight", "setting": "[1]; [7]", "value": 415, "unit": "g"},
      {"measurement": "Water Intake", "setting": "[1]; [7]", "value": 68, "unit": "g/kg"},
      {"measurement": "Alcohol Intake", "setting": "[1]; [8]", "value": 1.24, "unit": "g/kg"},
      {"measurement": "Alcohol Pref", "setting": "[1]; [8]", "value": 21, "unit": "%"},
      {"measurement": "Body Weight", "setting": "[1]; [8]", "value": 419, "unit": "g"},
      {"measurement": "Water Intake", "setting": "[1]; [8]", "value": 68, "unit": "g/kg"},
      {"measurement": "Alcohol Intake", "setting": "[1]; [9]", "value": 1.10, "unit": "g/kg"},
      {"measurement": "Alcohol Pref", "setting": "[1]; [9]", "value": 21, "unit": "%"},
      {"measurement": "Body Weight", "setting": "[1]; [9]", "value": 421, "unit": "g"},
      {"measurement": "Water Intake", "setting": "[1]; [9]", "value": 61, "unit": "g/kg"},
      {"measurement": "Alcohol Intake", "setting": "[1]; [10]", "value": 1.85, "unit": "g/kg"},
      {"measurement": "Alcohol Pref", "setting": "[1]; [10]", "value": 34, "unit": "%"},
      {"measurement": "Body Weight", "setting": "[1]; [10]", "value": 424, "unit": "g"},
      {"measurement": "Water Intake", "setting": "[1]; [10]", "value": 48, "unit": "g/kg"},
      {"measurement": "Alcohol Intake", "setting": "[1]; [11]", "value": 2.21, "unit": "g/kg"},
      {"measurement": "Alcohol Pref", "setting": "[1]; [11]", "value": 35, "unit": "%"},
      {"measurement": "Body Weight", "setting": "[1]; [11]", "value": 426, "unit": "g"},
      {"measurement": "Water Intake", "setting": "[1]; [11]", "value": 52, "unit": "g/kg"},
      {"measurement": "Alcohol Intake", "setting": "[1]; [12]", "value": 2.19, "unit": "g/kg"},
      {"measurement": "Alcohol Pref", "setting": "[1]; [12]", "value": 45, "unit": "%"},
      {"measurement": "Body Weight", "setting": "[1]; [12]", "value": 429, "unit": "g"},
      {"measurement": "Water Intake", "setting": "[1]; [12]", "value": 40, "unit": "g/kg"},
      {"measurement": "Alcohol Intake", "setting": "[1]; [13]", "value": 3.06, "unit": "g/kg"},
      {"measurement": "Alcohol Pref", "setting": "[1]; [13]", "value": 52, "unit": "%"},
      {"measurement": "Body Weight", "setting": "[1]; [13]", "value": 431, "unit": "g"},
      {"measurement": "Water Intake", "setting": "[1]; [13]", "value": 44, "unit": "g/kg"},
      {"measurement": "Alcohol Intake", "setting": "[1]; [14]", "value": 2.93, "unit": "g/kg"},
      {"measurement": "Alcohol Pref", "setting": "[1]; [14]", "value": 57, "unit": "%"},
      {"measurement": "Body Weight", "setting": "[1]; [14]", "value": 435, "unit": "g"},
      {"measurement": "Water Intake", "setting": "[1]; [14]", "value": 30, "unit": "g/kg"},
      {"measurement": "Alcohol Intake", "setting": "[1]; [15]", "value": 2.67, "unit": "g/kg"},
      {"measurement": "Alcohol Pref", "setting": "[1]; [15]", "value": 58, "unit": "%"},
      {"measurement": "Body Weight", "setting": "[1]; [15]", "value": 436, "unit": "g"},
      {"measurement": "Water Intake", "setting": "[1]; [15]", "value": 27, "unit": "g/kg"},
      {"measurement": "Alcohol Intake", "setting": "[1]; [16]", "value": 2.37, "unit": "g/kg"},
      {"measurement": "Alcohol Pref", "setting": "[1]; [16]", "value": 42, "unit": "%"},
      {"measurement": "Body Weight", "setting": "[1]; [16]", "value": 431, "unit": "g"},
      {"measurement": "Water Intake", "setting": "[1]; [16]", "value": 48, "unit": "g/kg"},
      {"measurement": "Alcohol Intake", "setting": "[1]; [17]", "value": 2.32, "unit": "g/kg"},
      {"measurement": "Alcohol Pref", "setting": "[1]; [17]", "value": 40, "unit": "%"},
      {"measurement": "Body Weight", "setting": "[1]; [17]", "value": 437, "unit": "g"},
      {"measurement": "Water Intake", "setting": "[1]; [17]", "value": 54, "unit": "g/kg"},
      {"measurement": "effect on alcohol intake", "setting": "[2]", "value": "significant effect on alcohol intake"}
    ]}
  ]
}
